Measurements from patent US20260209228A1 (Elanco Tiergesundheit AG, priority 2018, published 2026).

Experiments:
D. immitis microfilariae = assay: Dog heart worm microfilariae motility inhibition (Example A); format: cell-based; settings: read-out: EC50 (motility inhibition)
[1] = tested on: H. contortus (H.c.) larvae; assay: Ruminant gastrointestinal H. contortus larvae motility inhibition (Example B); settings: Haemonchus contortus, read-out: EC50 (motility inhibition)
Experimental: H.c. eggs isolated from lamb fecal matter are allowed to hatch overnight. Test compounds are diluted in DMSO and added to a 96-well plate containing appropriate media. H.c. larvae are added to each well and plates are incubated for the desired time(s). Motility is assessed using an LCD camera imaging system. Percent motility inhibition values are generated relative to the average of the DMSO-only wells.

L. sigmodontis = assay: L.s. model (Example E); settings: mice infected s.c. with L. sigmodontis larvae; oral gavage, dose between 1×3 mg/kg and 5×32 mg/kg; necropsy 5 weeks after infection
Experimental: Mice, injected subcutaneously with infective L. sigmodontis larvae, were subsequently treated with the test article formulated in eg DMSO/PEG 2/1, by oral gavage at a dose in a range between 1×3 mg/kg up to 5×32 mg/kg (one dose per day for 5 consecutive days). At necropsy 5 weeks after infection, efficacy is calculated by counting developed larvae vs. untreated animals using Abbot's formula.

H. contortus = assay: Gastro intestinal nematodes jird model, H. contortus only (Example C); settings: jirds; H. contortus from stomach; oral, Day 6 after infection, dose between 1×3 mg/kg and 1×32 mg/kg; necropsy three days after treatment
Experimental: Jirds (Meriones unguiculatus), are artificially infected by gavage with third instar larvae each of T. colubriformis and H. contortus. Then treated orally with the test compound formulated in eg DMSO/PEG 2/1, on Day 6 after infection at a dose in a range between 1×3 mg/kg up to 1×32 mg/kg. Three days after treatment, gerbils are euthanized and dissected to recover H. contortus from stomach and T. colubriformis from the small intestine. Efficacy is expressed as a % reduction in worm numbers in comparison with a placebo treated group, using the Abbot's formula.

Row | SMILES | EC50 (D. immitis microfilariae) [µg/mL] | EC50 [1] [µg/mL] | efficacy (developed larvae vs. untreated animals, Abbot's formula) (L. sigmodontis) [%] | efficacy against He (% reduction in worm numbers vs placebo treated group, Abbot's formula) (H. contortus) [%]
1 | Nc1c(C(=O)N[C@H]2CCOc3ccccc32)cnc2c(-c3cc(Cl)cc(Cl)c3)nccc12 [Example 1.12, 4-amino-N-[(4S)-chroman-4-yl]-8-(3,5-dichlorophenyl)-1,7-naphthyridine-3-carboxamide] | < 0.1 | < 1 | – | –
2 | CN(C)c1c(C(=O)N[C@H]2CCOc3ccccc32)cnc2c(-c3cc(Cl)cc(Cl)c3)nccc12 [Example 1.1, N-[(4S)-chroman-4-yl]-8-(3,5-dichlorophenyl)-4-(dimethylamino)-1,7-naphthyridine-3-carboxamide] | < 0.1 | < 1 | – | –
3 | CN(C)c1c(C(=O)N[C@H]2CCc3ccccc32)cnc2c(-c3cc(Cl)cc(Cl)c3)nccc12 [Example 1.21, 8-(3,5-dichlorophenyl)-4-(dimethylamino)-N-[(1S)-indan-1-yl]-1,7-naphthyridine-3-carboxamide] | < 0.1 | < 1 | – | –
4 | CN(C)c1c(C(=O)N[C@H]2CCOc3ccccc32)ccc2c(-c3cc(Cl)cc(Cl)c3)nccc12 [Example 4.1, N-[(4S)-chroman-4-yl]-1-(3,5-dichlorophenyl)-5-(dimethylamino)isoquinoline-6-carboxamide] | < 0.1 | < 1 | – | –
5 | O=C1CN(c2c(C(=O)N[C@H]3CCOc4ccccc43)cnc3c(-c4cc(Cl)cc(Cl)c4)nccc23)CN1 [Example 1.37, N-[(4S)-chroman-4-yl]-8-(3,5-dichlorophenyl)-4-(4-oxoimidazolidin-1-yl)-1,7-naphthyridine-3-carboxamide] | < 0.1 | < 1 | – | –
6 | CN(C)c1c(C(=O)N[C@H]2CCOc3ccccc32)cnc2c(-c3cc(F)cc(F)c3)nccc12 [Example 1.48, N-[(4S)-chroman-4-yl]-8-(3,5-difluorophenyl)-4-(dimethylamino)-1,7-naphthyridine-3-carboxamide] | < 0.1 | < 1 | – | –
7 | CN(C)c1c(C(=O)N[C@H]2CCOc3ccccc32)cnc2c(-c3ccccc3F)nccc12 [Example 1.49, N-[(4S)-chroman-4-yl]-8-(2-fluorophenyl)-4-(dimethylamino)-1,7-naphthyridine-3-carboxamide] | < 0.1 | – | – | –
8 | CN(C)c1c(C(=O)N[C@H]2CCOc3ccccc32)cnc2c(N3CCc4cc(Cl)ccc43)nccc12 [Example 1.7, 8-(5-chloroindolin-1-yl)-N-[(4S)-chroman-4-yl]-4-(dimethylamino)-1,7-naphthyridine-3-carboxamide] | – | < 1 | – | –
9 | CN(C)c1c(C(=O)N[C@H]2CCCc3ccccc32)cnc2c(-c3cc(Cl)cc(Cl)c3)nccc12 [Example 1.32, 8-(3,5-dichlorophenyl)-4-(dimethylamino)-N-[(1S)-tetralin-1-yl]-1,7-naphthyridine-3-carboxamide] | < 0.1 | < 1 | – | –
10 | CN(C)c1c(C(=O)N[C@@H]2CCOc3ccsc32)cnc2c(-c3cc(Cl)cc(Cl)c3)nccc12 [Example 1.47, 8-(3,5-dichlorophenyl)-N-[(7R)-6,7-dihydro-5H-thieno[3,2-b]pyran-7-yl]-4-(dimethylamino)-1,7-naphthyridine-3-carboxamide] | < 0.1 | < 1 | – | –
11 | CN(C)c1c(C(=O)N[C@H]2CCOc3ccccc32)ncc2c(-c3cc(Cl)cc(Cl)c3)cccc12 [Example 2.1, N-[(4S)-chroman-4-yl]-8-(3,5-dichlorophenyl)-4-(dimethylamino) isoquinoline-3-carboxamide] | < 0.1 | < 1 | – | –
12 | CN(C)c1c(C(=O)N[C@H]2CCOc3ccccc32)cnc2c(-c3cccc(Cl)c3Cl)nccc12 [Example 1.55, N-[(4S)-chroman-4-yl]-8-(2,3-dichlorophenyl)-4-(dimethylamino)-1,7-naphthyridine-3-carboxamide] | < 0.1 | < 1 | – | –
13 | O=C(N[C@H]1CCOc2ccccc21)c1cnc2c(-c3cc(Cl)cc(Cl)c3)nccc2c1C1CC1 [Example 1.20, N-[(4S)-chroman-4-yl]-4-cyclopropyl-8-(3,5-dichlorophenyl)-1,7-naphthyridine-3-carboxamide] | < 0.1 | < 1 | – | –
14 | O=C(N[C@H]1CCOc2ccccc21)c1cnc2c(-c3cc(Cl)cc(Cl)c3)nccc2c1Cl [Example 1.30, 4-chloro-N-[(4S)-chroman-4-yl]-8-(3,5-dichlorophenyl)-1,7-naphthyridine-3-carboxamide] | < 0.1 | – | – | –
15 | CN(C)c1c(C(=O)N[C@H]2CCOc3ccccc32)cnc2c(-n3ccc4cc(Cl)ccc43)nccc12 [Example 1.8] | < 0.1 | < 1 | > 70 | –
16 | CN(C)c1c(C(=O)N[C@H]2CCOc3ccccc32)ccc2c(-c3cc(Cl)cc(Cl)c3)cccc12 [Example 5.1] | < 0.1 | < 1 | – | –

Row | SMILES | EC50 (D. immitis microfilariae) [µg/mL] | EC50 [1] [µg/mL] | efficacy (developed larvae vs. untreated animals, Abbot's formula) (L. sigmodontis) [%] | efficacy against He (% reduction in worm numbers vs placebo treated group, Abbot's formula) (H. contortus) [%]
17 | COc1c(C(=O)N[C@H]2CCOc3ccccc32)cnc2c(-c3cc(Cl)cc(Cl)c3)nccc12 [Example 1.33, N-[(4S)-chroman-4-yl]-8-(3,5-dichlorophenyl)-4-methoxy-1,7-naphthyridine-3-carboxamide] | < 0.1 | < 1 | – | –
18 | CN(C)c1c(C(=O)N[C@H]2CCOc3ccccc32)cnc2c(-c3cc(C(F)(F)F)cc(C(F)(F)F)c3)nccc12 [Example 1.52, 8-[3,5-bis(trifluoromethyl)phenyl]-N-[(4S)-chroman-4-yl]-4-(dimethylamino)-1,7-naphthyridine-3-carboxamide] | < 0.1 | – | – | –
19 | CN(C)c1c(C(=O)N[C@H]2CCOc3ccccc32)cnc2c(-c3ccc(Cl)cc3Cl)nccc12 [Example 1.54, N-[(4S)-chroman-4-yl]-8-(2,4-dichlorophenyl)-4-(dimethylamino)-1,7-naphthyridine-3-carboxamide] | < 0.1 | < 1 | – | –
20 | N#CCc1c(C(=O)N[C@H]2CCOc3ccccc32)cnc2c(-c3cc(Cl)cc(Cl)c3)nccc12 [Example 1.38, N-[(4S)-chroman-4-yl]-4-(cyanomethyl)-8-(3,5-dichlorophenyl)-1,7-naphthyridine-3-carboxamide] | < 0.1 | < 1 | – | –
21 | CN(C)c1c(C(=O)N[C@H]2CCOc3ccccc32)cnc2c(-c3cc(F)c(F)c(F)c3)nccc12 [Example 1.51, N-[(4S)-chroman-4-yl]-4-(dimethylamino)-8-(3,4,5-trifluorophenyl)-1,7-naphthyridine-3-carboxamide] | < 0.1 | < 1 | – | –
22 | Cc1ccc2c(c1)OCC[C@@H]2NC(=O)c1cnc2c(-c3cc(Cl)cc(Cl)c3)nccc2c1N(C)C [Example 1.45, 8-(3,5-dichlorophenyl)-4-(dimethylamino)-N-[(4S)-7-methylchroman-4-yl]-1,7-naphthyridine-3-carboxamide] | < 0.1 | < 1 | – | –
23 | CN(C)c1c(C(=O)N[C@H]2CCOc3ccccc32)cnc2c(-c3cc(F)cc(F)c3F)nccc12 [Example 1.50, N-[(4S)-chroman-4-yl]-4-(dimethylamino)-8-(2,3,5-trifluorophenyl)-1,7-naphthyridine-3-carboxamide] | < 0.1 | < 1 | – | > 90
24 | CN(C)c1c(C(=O)N[C@H]2CCOc3ccccc32)ncc2c(-c3cc(Cl)cc(Cl)c3)nccc12 [Example 3.1, N-[(4S)-chroman-4-yl]-8-(3,5-dichlorophenyl)-4-(dimethylamino)-2,7-naphthyridine-3-carboxamide] | – | < 1 | – | –
25 | C[C@H]1COc2ccccc2[C@H]1NC(=O)c1cnc2c(-c3cc(Cl)cc(Cl)c3)nccc2c1N(C)C (racemic) [Example 1.39, 8-(3,5-dichlorophenyl)-4-(dimethylamino)-N-[rac-(3R,4S)-3-methylchroman-4-yl]-1,7-naphthyridine-3-carboxamide] | < 0.1 | < 1 | – | –
26 | CN(C)c1c(C(=O)N[C@H]2CCOc3ccccc32)ccc2c(-c3cc(Cl)cc(Cl)c3)ccnc12 [Example 6.1, N-[(4S)-Chroman-4-yl]-4-(3,5-dichlorophenyl)-8-(dimethylamino)quinoline-7-carboxamide] | < 0.1 | < 1 | – | –
27 | O=C(N[C@H]1CCOc2ccccc21)c1cnc2c(-c3cc(Cl)cc(Cl)c3)nccc2c1N1CCOCC1 [Example 1.9, N-[(4S)-chroman-4-yl]-8-(3,5-dichlorophenyl)-4-morpholino-1,7-naphthyridine-3-carboxamide] | < 0.1 | < 1 | – | –
28 | CN(C)c1c(C(=O)N[C@H]2CCOc3ccccc32)ccc2c(-c3cc(Cl)cc(Cl)c3)cncc12 [Example 7.1, N-[(4S)-Chroman-4-yl]-4-(3,5-dichlorophenyl)-8-(dimethylamino)isoquinoline-7-carboxamide] | < 0.1 | < 1 | – | –
29 | CC(C)c1c(C(=O)N[C@H]2CCOc3ccccc32)cnc2c(-c3cc(Cl)cc(Cl)c3)nccc12 [Example 1.42, N-[(4S)-chroman-4-yl]-8-(3,5-dichlorophenyl)-4-isopropyl-1,7-naphthyridine-3-carboxamide] | < 0.1 | < 1 | – | –
30 | COc1ccc(F)c(-c2nccc3c(N(C)C)c(C(=O)N[C@H]4CCOc5ccccc54)cnc23)c1F [Example 1.24, N-[(4S)-chroman-4-yl]-8-(2,6-difluoro-3-methoxyphenyl)-4-(dimethylamino)-1,7-naphthyridine-3-carboxamide] | < 0.1 | < 1 | – | –
31 | CON(C)c1c(C(=O)N[C@H]2CCOc3ccccc32)cnc2c(-c3cc(Cl)cc(Cl)c3)nccc12 [Example 1.31, N-[(4S)-chroman-4-yl]-8-(3,5-dichlorophenyl)-4-[methoxy(methyl)amino]-1,7-naphthyridine-3-carboxamide] | < 0.1 | < 1 | – | –
32 | CN(C)c1c(C(=O)N[C@H]2CCOc3cc(F)ccc32)cnc2c(-c3cc(Cl)cc(Cl)c3)nccc12 [Example 1.17, 8-(3,5-dichlorophenyl)-4-(dimethylamino)-N-[(4S)-7-fluorochroman-4-yl]-1,7-naphthyridine-3-carboxamide] | < 0.1 | < 1 | – | –
